{"source": "patent US9856480B2", "about": "“Dnazyme for silencing the expression of EGFR” (DCB-USA LLC, priority 2013, dated 2018)", "key": {"cleaved PARP": {"test_system": "cleaved PARP", "assay": "Immunoblotting against cleaved form of PARP", "format": "cell-based, human", "conditions": "H1975 and CL97 cells; 100 nM", "protocol": "A549, CL1-5, H1975, or CL97 was seeded onto 6-well at 3×10^5 cells/well and cultured overnight. Then, cells were separately treated with 100 nM DzControl or DzT790M-1 with lipofectamine 2000 (Invitrogen). The transfected A549 and CL1-5 cells were serum-starved for 24 h and treated with 100 ng/ml of EGF at 37° C. for 15 min. 72 h after transfection, cell were collected for analysis. Cells were washed twice by ice-cold PBS and then total protein was extracted by RIPA buffer with protease inhibitor (Roche). 50 μg of total protein from the supernatants were boiled for 5 min at 95° C. The samples were resolved on 10% SDS-PAGE gel and transferred onto nitrocellulose membranes. EGFR expression and downstream signaling were detected by using primary antibodies specific to human pEGFR(Y1068) (Cell signaling), tEGFR (Santa Cruz), pSTAT3 (Y705) (Cell signaling), tSTAT3 (Cell signaling), pAKT (5473)(Cell signaling), tAKT (Santa Cruz), pERK (T202/Y204) (Cell signaling), tERK (Santa Cruz), and cleaved PARP (Cell signaling) at 1:1000 dilution and β-actin (Santa Cruz) at 1:10000 dilution, respectively. […]\nEGFR and downstream signaling pathway regulates important cell functions including cell proliferation and survival. In order to examine functional effects of DzT790M-1 on cell survival, the number of cells was counted after DzControl or DzT790M-1 transfection respectively. […]"}, "[1]": {"test_system": "A549 cells (EGFR wild-type)", "assay": "Cell proliferation assay (cell counting)", "format": "cell-based, human", "conditions": "100 nM, 0-72 h after transfection", "protocol": "(§1) A549, CL1-5, H1975, or CL97 was seeded onto 6-well and cultured overnight. Then, cells were separately treated with 100 nM DzControl or DzT790M-1 with lipofectamine 2000 (Invitrogen). Cells were trypsinized and counted at 0 h, 24 h, 48 h, or 72 h after transfection.\n(§2) EGFR and downstream signaling pathway regulates important cell functions including cell proliferation and survival. In order to examine functional effects of DzT790M-1 on cell survival, the number of cells was counted after DzControl or DzT790M-1 transfection respectively. In A549 and CL1-5 cells (EGFR wild-type), the rate of cell proliferation or the cell number was not different between DzControl and DzT790M-1 transfected group (FIGS. 4A and 4B). In H1975 and CL97 cells (EGFR T790M), DzControl transfected cells were continued to grow after transfection when the number of DzT790M-1 treated cells was reduced (FIGS. 4C and 4D). In order to figure out whether DzT790M-1 treated cells undergoes cell apoptosis, immunoblotting against cleaved form of PARP and immunostaining of annexin V and PI were performed. The cleavage of PARP is caused by increased activity of caspase-3 and serves as a marker for cell apoptosis. […] While only 3.6% of cells underwent apoptosis and 12.4% of cells were dead in DzControl transfected H1975 cells, 18.6% of cells were detected as apoptotic cells and 32.6% of cells were annexin V and PI double positive in DzT790M-1 treated group (FIG. 4F)."}, "[2]": {"test_system": "CL1-5 cells (EGFR wild-type)", "assay": "Cell proliferation assay (cell counting)", "format": "cell-based, human", "conditions": "100 nM, 0-72 h after transfection", "protocol": "as §1, §2"}, "CL97 cells (EGFR T790M)": {"test_system": "CL97 cells (EGFR T790M)", "assay": "Cell proliferation assay (cell counting)", "format": "cell-based, human", "conditions": "100 nM, 0-72 h after transfection", "protocol": "as §1, §2"}, "H1975 cells (EGFR T790M)": {"test_system": "H1975 cells (EGFR T790M)", "assay": "Cell proliferation assay (cell counting)", "format": "cell-based, human", "conditions": "100 nM, 0-72 h after transfection", "protocol": "as §1, §2"}, "H1975 xenograft tumor": {"test_system": "H1975 xenograft tumor", "assay": "In vivo tumorigenesis assay, intratumoral DNAzyme", "set-up": "species or system Balb/c Nude mice", "protocol": "(§3) 8-week-old Balb/c Nude mice were subcutaneously inoculated with 2×10^6 H1975 cells. After 7 days, mice were randomly divided into two groups consisting of ten mice in each group (DzControl or DzT790M-1). 500 pmoles of DzControl or DzT790M-1 mixed with lipofectamine 2000 were injected intratumorally at frequency of twice per week until completion of the experiments. The sizes of tumor were measured every 3-4 days. All the animal studies were performed according to the protocols approved by the Laboratory Animal Center, Academia Sinica. After the mice were sacrificed, the tumor tissues were excised and fixed by 10% formalin and embedded in paraffin. Xenograft tumor slides were stained for hematoxylin and eosin and analyzed with microscopy.\nas §3, with “All the animal studies were performed according to the protocols approved by the Laboratory Animal Center, Academia Sinica.” left out, “microscopy. […] To assess the effects of DzT790M-1 on EGFR expression and downstream signaling, tumors taken from the Balb/c Nude mice were processed for western blotting.” for “microscopy.”"}, "[3]": {"test_system": "T790M-harboring cancer cells", "assay": "Anti-proliferation comparison of T790M DNAzymes", "format": "cell-based"}, "[4]": {"conditions": "500 pmoles intratumorally twice per week"}}, "note": "Strand notation (5' to 3'): a small letter for the sugar, then the base; units joined by * are phosphorothioate-linked, units joined directly phosphodiester-linked; [ ] holds rarer units or linkages, { } end groups; capitals alone tell only the bases. d = 2'-deoxy (DNA)"}
{"substance": "DzT790M-1: 10-23 DNAzyme against EGFR T790M mRNA, arms 10/4, phosphorothioate ends: AGCTGCATGAGGCTAGCTACAACGAGAGC (DNA dA*dGdCdTdGdCdAdTdGdAdGdGdCdTdAdGdCdTdAdCdAdAdCdGdAdGdAdG*dC; further chemistry not fully specified)", "values": [{"measurement": "level of cleaved PARP compared to DzControl treated group", "setting": "cleaved PARP", "result": "increased level"}, {"measurement": "rate of cell proliferation or cell number vs DzControl transfected group", "setting": "[1]", "result": "not different"}, {"measurement": "rate of cell proliferation or cell number vs DzControl transfected group", "setting": "[2]", "result": "not different"}, {"measurement": "number of cells after transfection", "setting": "CL97 cells (EGFR T790M)", "result": "reduced"}, {"measurement": "number of cells after transfection", "setting": "H1975 cells (EGFR T790M)", "result": "reduced"}, {"measurement": "total EGFR, pEGFR, pSTAT3, pAKT, pERK expression in xenograft tumor tissue (western blotting)", "setting": "H1975 xenograft tumor; [4]", "result": "significantly suppressed"}, {"measurement": "tumor tissue histology (hematoxylin and eosin)", "setting": "H1975 xenograft tumor; [4]", "result": "Severe necrosis"}, {"measurement": "tumor growth", "setting": "H1975 xenograft tumor; 500 pmoles with lipofectamine 2000 intratumorally twice per week, vs DzControl", "result": "significantly suppressed"}, {"measurement": "anti-proliferation effect on T790M-harboring cancer cells, ranking among SEQ ID NOs:1-7", "setting": "[3]", "result": "most effective"}]}
